Measurements as given in BindingDB's records for doi:10.1021/jm00398a021 (Bristol-Myers, 1988).

Molecular target: D(2) dopamine receptor (Rattus norvegicus, UniProt P61169)
Assay: ChEBML_58532
Description: Ability to inhibit [3H]spiperone binding to Dopamine receptor D2 in rat corpus striatum

Sequence of D(2) dopamine receptor (P61169 whole entry): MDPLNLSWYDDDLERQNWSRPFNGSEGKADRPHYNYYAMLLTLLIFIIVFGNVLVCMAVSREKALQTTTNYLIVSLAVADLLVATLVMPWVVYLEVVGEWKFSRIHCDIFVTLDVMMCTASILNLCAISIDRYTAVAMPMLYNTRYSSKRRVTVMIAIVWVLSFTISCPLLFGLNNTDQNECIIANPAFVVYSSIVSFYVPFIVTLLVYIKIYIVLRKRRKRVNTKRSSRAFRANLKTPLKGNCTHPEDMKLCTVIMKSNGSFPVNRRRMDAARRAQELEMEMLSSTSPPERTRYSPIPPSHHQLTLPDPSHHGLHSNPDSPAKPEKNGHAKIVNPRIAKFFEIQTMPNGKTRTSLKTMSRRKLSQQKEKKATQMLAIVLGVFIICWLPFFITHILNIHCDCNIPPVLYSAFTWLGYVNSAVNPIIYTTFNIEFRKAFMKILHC

O=c1scc(O)n1CCCCN1CCN(c2ccccn2)CC1
IC50: > 1000 nM
